Data from article PMC11817610, “Stereoselective Synthesis and Biological Evaluation of Perhydroquinoxaline-Based κ Receptor Agonists” (International Journal of Molecular Sciences, 2025).
Read-outs that look alike come from different tables or passages of the source.

How the values were obtained:
[1] = target: T1, μ receptor (Cavia porcellus, UniProt A0ACM8Q262); test: μ receptor radioligand binding assay with [3H]DAMGO, guinea pig brain membranes
[2] = target: T1, μ receptor; parameters: method as in PMID 25062506; conditions: [3H]DAMGO, guinea pig brain membranes; cited from earlier work
[3] = target: T2, δ receptor (Rattus norvegicus, UniProt P33533); parameters: method as in PMID 25062506; conditions: test compound 1 μM, [3H]DPDPE, rat brain membranes; cited from earlier work
T2 construct: The thawed rat brain membrane preparation (about 75 μg of the protein) was incubated; tissue Harlan-Winkelmann, Borchen, Germany; host or cells: rat brain membrane homogenate
T2 sequence (P33533 whole entry): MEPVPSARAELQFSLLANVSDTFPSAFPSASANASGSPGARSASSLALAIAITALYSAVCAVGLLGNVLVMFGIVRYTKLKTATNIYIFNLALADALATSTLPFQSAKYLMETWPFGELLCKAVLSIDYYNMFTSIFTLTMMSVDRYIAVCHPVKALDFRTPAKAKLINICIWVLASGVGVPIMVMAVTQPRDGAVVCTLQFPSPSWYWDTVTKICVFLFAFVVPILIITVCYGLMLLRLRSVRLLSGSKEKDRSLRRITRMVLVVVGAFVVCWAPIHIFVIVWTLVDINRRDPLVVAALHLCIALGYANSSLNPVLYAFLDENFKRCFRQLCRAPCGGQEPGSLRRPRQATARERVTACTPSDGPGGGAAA

[4] = target: T3, σ1 receptor (Cavia porcellus, UniProt Q60492); conditions: [3H]-(+)-pentazocine, guinea pig brain membranes; cited from earlier work
T3 sequence (Q60492 whole entry): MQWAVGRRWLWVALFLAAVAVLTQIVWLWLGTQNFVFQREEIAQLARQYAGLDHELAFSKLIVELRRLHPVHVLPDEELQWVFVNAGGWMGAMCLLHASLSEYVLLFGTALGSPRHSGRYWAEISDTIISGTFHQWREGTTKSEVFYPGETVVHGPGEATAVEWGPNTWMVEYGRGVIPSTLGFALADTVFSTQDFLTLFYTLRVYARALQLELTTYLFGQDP

[5] = target: T4, σ2 receptor (Rattus norvegicus, UniProt Q5U3Y7); conditions: read-out: Ki σ2 Receptor; [3H]DTG, rat liver membranes; cited from earlier work
T4 construct: The thawed rat liver membrane preparation; tissue Harlan-Winkelmann, Borchen, Germany; host or cells: rat liver membrane homogenate
T4 sequence (Q5U3Y7 1-176): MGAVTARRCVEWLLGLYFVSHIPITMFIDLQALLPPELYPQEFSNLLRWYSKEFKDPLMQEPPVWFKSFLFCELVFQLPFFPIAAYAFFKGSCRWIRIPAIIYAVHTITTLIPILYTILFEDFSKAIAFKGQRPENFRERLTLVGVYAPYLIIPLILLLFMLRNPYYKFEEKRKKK

[6] = target: κ receptor (Cavia porcellus, UniProt P41144); test: κ receptor radioligand binding assay with [3H]U-69,593, guinea pig brain membranes
Chain of κ receptor (P41144 whole entry): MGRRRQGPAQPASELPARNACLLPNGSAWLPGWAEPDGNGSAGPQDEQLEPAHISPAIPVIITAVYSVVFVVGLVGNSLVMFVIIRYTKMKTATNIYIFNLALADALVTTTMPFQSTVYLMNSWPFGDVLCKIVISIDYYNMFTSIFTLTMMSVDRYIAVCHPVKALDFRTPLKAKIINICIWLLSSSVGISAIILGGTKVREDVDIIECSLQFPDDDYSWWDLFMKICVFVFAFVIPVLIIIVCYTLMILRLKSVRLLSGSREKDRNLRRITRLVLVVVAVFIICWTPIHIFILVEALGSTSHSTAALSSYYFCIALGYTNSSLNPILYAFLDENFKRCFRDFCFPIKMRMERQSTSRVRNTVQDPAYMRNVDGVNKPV

[7] = target: T3, σ1 receptor; test: σ1 receptor radioligand binding assay with [3H]-(+)-pentazocine, guinea pig brain membranes; conditions: read-out: Ki ± SEM σ1 Receptor
[8] = target: T4, σ2 receptor; test: biochemical; conditions: read-out: inhibition of the radioligand binding, σ2 Receptor
[9] = target: T2, δ receptor; test: δ receptor radioligand binding assay with [3H]DPDPE, rat brain membranes; conditions: read-out: inhibition of the radioligand binding, δ Receptor
[10] = mouse, microsomes, 1.5 h
[11] = physchem; conditions: pH 7.4
[12] = target: human serum albumin (Homo sapiens, UniProt P02768); test: in vitro; conditions: plasma
Chain of human serum albumin (P02768 25-609): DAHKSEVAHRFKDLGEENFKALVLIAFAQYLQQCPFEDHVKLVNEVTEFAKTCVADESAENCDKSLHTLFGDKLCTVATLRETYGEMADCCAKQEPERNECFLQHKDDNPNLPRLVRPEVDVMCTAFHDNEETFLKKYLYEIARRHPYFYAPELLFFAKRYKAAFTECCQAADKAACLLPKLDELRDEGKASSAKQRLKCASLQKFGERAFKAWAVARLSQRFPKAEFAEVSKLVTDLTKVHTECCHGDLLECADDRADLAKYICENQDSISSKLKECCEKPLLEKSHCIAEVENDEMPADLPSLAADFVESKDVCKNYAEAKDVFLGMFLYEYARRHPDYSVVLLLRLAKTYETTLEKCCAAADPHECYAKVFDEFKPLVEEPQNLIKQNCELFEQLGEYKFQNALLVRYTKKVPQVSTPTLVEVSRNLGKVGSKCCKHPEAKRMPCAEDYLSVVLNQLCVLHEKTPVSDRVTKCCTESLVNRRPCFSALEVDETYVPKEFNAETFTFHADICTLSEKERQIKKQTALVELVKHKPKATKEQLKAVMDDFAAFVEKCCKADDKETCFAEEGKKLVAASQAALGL

T1 sequence (A0ACM8Q262 1-400): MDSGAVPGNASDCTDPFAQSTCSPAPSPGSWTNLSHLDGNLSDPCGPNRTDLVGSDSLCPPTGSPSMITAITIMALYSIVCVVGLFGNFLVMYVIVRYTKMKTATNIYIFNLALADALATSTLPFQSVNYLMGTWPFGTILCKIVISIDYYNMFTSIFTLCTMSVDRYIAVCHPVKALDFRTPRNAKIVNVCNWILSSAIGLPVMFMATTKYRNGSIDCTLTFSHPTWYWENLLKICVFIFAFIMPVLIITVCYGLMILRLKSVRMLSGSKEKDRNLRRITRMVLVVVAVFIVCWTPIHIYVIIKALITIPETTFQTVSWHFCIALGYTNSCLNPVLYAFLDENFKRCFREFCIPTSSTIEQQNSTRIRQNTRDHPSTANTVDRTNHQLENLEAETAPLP

Compound: [3H]-DAMGO [reference compound]
- Kd ([1]; guinea pig brain membrane preparation): 0.57 nM

Compound: O=C(Cc1ccc(Cl)c(Cl)c1)N1CCN(Cc2ccccc2)C2CCCC(N3CCCC3)C21 (centres unmarked) [2a]
- Ki [2]: 3900 nM
- inhibition of the radioligand binding, δ Receptor [3]: 39%
- Ki [4]: 1390 nM
- Ki [5]: 4390 nM

Compound: CC(C)(C)[Si](C)(C)O[C@@H]1C[C@@H]2[C@@H]([C@@H](N3CCCC3)C1)N(C(=O)Cc1ccc(Cl)c(Cl)c1)CCN2Cc1ccccc1 (racemic) [compound 13, 1-[(4aRS,6SR,8SR,8aRS)-4-Benzyl-6-(tert-butyldimethylsilyloxy)-8-(pyrrolidin-1-yl)-decahydroquinoxalin-1-yl]-2-(3,4-dichlorophenyl)ethan-1-one]
- inhibition at 1 µM ([6]; read-out: inhibition of the radioligand binding, κ Receptor): 0%
- Ki [7]: 487 nM
- inhibition at 1 µM [8]: 7%

Compound: O=C(Cc1ccc(Cl)c(Cl)c1)N1CCN(Cc2ccccc2)[C@@H]2C[C@@H](O)C[C@H](N3CCCC3)[C@H]21 (racemic) [compound 14, 1-[(4aRS,6SR,8SR,8aRS)-4-Benzyl-6-hydroxy-8-(pyrrolidin-1-yl)decahydro-quinoxalin-1-yl]-2-(3,4-dichlorophenyl)ethan-1-one]
- selectivity for κ receptor over μ, δ, σ1 and σ2 receptors [6]: high selectivity
- Ki ([6]; [3H]U-69,593, guinea pig brain membranes, with SEM n = 3, without SEM one experiment): 599 ± 217 nM
- inhibition at 1 µM ([1]; read-out: inhibition of the radioligand binding, μ Receptor): 0%
- inhibition at 1 µM [9]: 11%
- Ki [7]: 7900 nM
- inhibition at 1 µM [8]: 0%
- compound remaining unchanged (metabolic stability) [10]: 92 ± 1%
- logD [11]: 1.72 ± 0.05
- fraction unbound [12]: 0.075
